Earlier results in paper PMC7867784 (Translational Lung Cancer Research, 2021).

Tested on: RET-fusion positive NSCLC cells
Details: cited from earlier work

**Q.** Which “growth of RET-rearranged tumor cells” value (in vitro and in vivo, pre-clinical studies) does the source give for `CCc1cc2c(cc1N1CCC(N3CCOCC3)CC1)C(C)(C)c1[nH]c3cc(C#N)ccc3c1C2=O` [alectinib] here?
**A.** The value was “inhibit the growth”.

**Q.** And the IC50 (read-out: IC50 in RET-fusion positive NSCLC cells)?
**A.** Its IC50 is less than 300 nM.
